Test results from US5567704A, “R-enatiomerically pure hydroxylated xanthine compounds to treat baldness” (priority 1995, dated 1996).

Experiments:
[1] = test system: lysophosphatidic acid acyl transferase (LPAAT); assay: in vitro inhibition of LPAAT in 3T3 Ras-transformed fibroblasts stimulated with IL-1β; type: cell-based; details: 3T3 Ras-transformed fibroblasts, IL-1β, FIG. 17
Experimental: FIG. 17 illustrates a comparison of CT1501R, its S isomer CT1501S, and PTX on in vitro inhibition of lysophosphatidic acid acyl transferase (LPAAT), an enzyme involved in second messenger signaling. […] LPAAT activity was determined in 3T3 Ras-transformed fibroblasts stimulated with IL-1β.
One in vitro assay measures inhibition of the relevant enzymes lysophosphatidic acid acyltransferase (LPAAT) and phosphatidic acid phosphoryl hydrolase (PAPH). The assay involves incubating of target cells with a primary stimulus (e.g., a variety of cytokines, growth factors, oncogene products, putative therapeutic agents, irradiation, viral infection, toxins, bacterial infection and the products thereof, and any stimulus which, if not counteracted, has a deleterious effect on the target cell) in the presence or absence of an inventive compound at varying dosage levels. Target cells include, for example, subcellular entities, such as, microsomes derived from mesenchymal and/or ectodermal cells, particularly microsomes from marrow stromal cells or human or rat mesangial cells; microsomes or synaptosomes derived from brain; plasma membrane-enriched microsomes, plasma membranes derived as described in Bursten et at. (J. Biol. Chem. 226:20732-20743, 1991 ), or detergent-solubilized microsomes; synaptosomes, and membranes or other cell preparations solubilized using, for example, NP-40, Miranal, SDS or other neutral detergents; and detergent-solubilized, recombinant, or further purified preparations of cell proteins, including the proteins LPAAT and/or PAPH. After incubation for short periods of time, cell lipids are extracted and assayed by […] according to standard procedures. Briefly, lipids are extracted using, for example, chloroform:methanol 2:1 (v/v), and the extracts are then subjected to HPLC as described in Bursten and Harris, Biochemistry 30:6195-6203, 1991. A Rainin® mu-Porasil column is used with a 3:4 hexane:propanol organic carrier and a 1-10% water gradient during the first 10 minutes of separation. Detection of the peaks in the elution pattern is by absorption in the range of ultraviolet which detects isolated double bonds. The relevant peaks of unsaturated PA and DAG are shown in the elution pattern. It is important to note that the assay method permits discrimination between various forms of PA and DAG so that those relevant to the pathway affected by the (R) or (S) compounds of the invention can be measured directly. Confirmation of the nature of the acyl substituents of these components is accomplished using fast-atom bombardment mass spectroscopy. Thus, the relevant unsaturated (non-arachidonic) PA and DAG subspecies may be detected. The time periods employed are 5-60 seconds after stimulation with the primary stimulus, such as a cytokine. This technique permits assessment of the levels of various lipid components as a function of time.

smooth muscle cell = assay: smooth muscle proliferation stimulated by PDGF and IL-1; type: cell-based; details: PDGF and IL-1; drug added two hours prior, FIG. 4
Description: CT1501R and PTX were separately added to the cells two hours prior to activation with PDGF and IL-1.

stromelysin/PUMP-1 = assay: PUMP-1 activity induced by IL-1; type: cell-based; details: induced by 100 U/ml of IL-1
Description: Metalloproteases mediate tissue damage such as glomerular diseases of the kidney, joint destruction in arthritis, and lung destruction in emphysema, and play a role in tumor metastases. Three examples of metalloproteases include a 92 kD type V gelatinase induced by TNF, IL-1 and PDGF plus bFGF, a 72 kD type IV collagenase that is usually constitutive and induced by TNF or IL-1, and a stromelysin/PUMP-1 induced by TNF and IL-1. The inventive compounds can inhibit TNF or IL-1 induction of the 92 kD type V gelatinase inducable metalloprotease. Moreover, CT 1501R reduced PUMP- 1 activity induced by 100 U/ml of IL-1 to 15% of its control levels. […] Accordingly, the inventive compounds prevent induction of certain metalloproteases induced by IL-1 or TNF and are not involved with constitutively produced proteases (e.g., 72 kD type IV collagenase) involved in normal tissue remodeling.

[2] = metabolized in humans; cited from earlier work
[3] = test system: PBMC (peripheral blood mononuclear cells); assay: two-way mixed lymphocyte reaction (MLR); type: cell-based, human; details: FIG. 1
Description: Various in vitro assays can be used to measure effects of the inventive compounds to module immune activity and have antitumor activity using a variety of cellular types. For example, a mixed lymphocyte reaction (MLR) provides a valuable screening tool to determine biological activity of each inventive compound. In the MLR, PBMCs (peripheral blood mononuclear cells) are obtained by drawing whole blood from healthy volunteers in a heparinized container and diluted with an equal volume of hanks balanced salt solution (HBSS). This mixture is layered on a sucrose density gradient, such as a Ficoll-Hypaque® gradient (specific gravity 1.08), and centrifuged at 1000× g for 25 minutes at room temperature or cooler. PBMC are obtained from a band at a plasma-Ficoll interface, separated and washed at least twice in a saline solution, such as HBSS. Contaminating red cells are lysed, such as by ACK lysis for 10 min at 37° C., and the PBMCs are washed twice in HBSS. The pellet of purified PBMCs is resuspended in complete medium, such as RPMI 1640 plus 20% human inactivated serum. Proliferative response of PBMC to allogeneic stimulation is determined in a two-way MLR performed in a 96-well microtiter plate. […] At the conclusion of the incubation tritiated thymidine is added (for example, 1 μCi/well of 40 to 60 Ci/mmole) and proliferation determined by liquid scintillation counting. […]

nu/nu mice = assay: nude mouse hair studies, topical application; type: in vivo; details: second experiment; topical twice daily, 34 days
Description: This example illustrates nude mouse hair studies involving topical application of CT1501R. Six to eight week old, female, nu/nu mice from Charles River Laboratories were housed at Biosupport Research Support Services (Seattle, Wash.) in autoclaved micro isolator units with hyperchlorinated autoclaved water, irradiated rodent chow and kept under a laminar flow hood. Caging was changed weekly, and water was changed twice weekly. The mice were acclimated for 5 days before beginning each study.
The first topical formulation was prepared by adding CT1501R to a heated hydrophilic ointment (USP) at a 1% concentration, and allowed to solidify.
Nude mice were painted twice daily for 16 days with the first topical formulation of CT1501R on the left flank and another compound in the same base on the right flank with sterile applicators. Mice were handled under the laminar flow hood with applicator wearing face mask and sterile gloves. After 16 days, one mouse was sacrificed by cervical dislocation and skin biopsies were taken of the treated areas of the shoulder/flank and from the non-treated area of the dorsal pelvis (rump). Specimens were placed in 10% buffered formalin solution. Biopsies were sent to a veterinary dermopathologist for histopathology. Six weeks following treatment, a second mouse was euthanatized and biopsied the same as the first. Samples were sent for histopathology.
In a second experiment, topical application of CT1501R was performed along with a commercial topical minoxidil preparation (Rogaine®, Upjohn) that is approved for a hair growth indication. Five to six week old, female, nu/nu mice from Bantin and Kingman Universal were housed at Biosupport Research Support Services (Seattle, Wash.) in autoclaved micro isolator units with hyper chlorinated autoclaved water, irradiated rodent chow and kept under a laminar flow hood. Caging was changed weekly, and water was changed twice weekly. Mice were acclimated for 7 days before beginning study.
CT1501R, and two other compounds were prepared in a topical formulation of 60% ETOH, 10% water and 30% PEG along with vehicle only. Minoxidil was purchased as the commercial preparation Rogaine® from a local pharmacy. Rogaine® is sold in the same formulation base. Mice were identified by unique tail markings specific for each test article. Two mice per group were treated with CT1501R and another compound. One mouse was treated with each of vehicle and minoxidil. The mice were handled under the laminar flow hood with the applicator wearing face mask and sterile gloves. Each mouse was treated twice daily with a separate sterile applicator to avoid contamination of the solutions or the mice. All mice were applied a strip of appropriate test article along the center line of the back from the base of the skull to the base of the tail, approximately 1.5 cm wide. After 34 days all mice were euthanatized by overdose of halothane anesthesia. Skin biopsies were taken from each of the 7 mice over the nape of the neck between the scapulas (approximate size was 1×1.5 cm). All specimens were blotted on gauze to remove blood and fluids, affixed to a cut piece of wooden tongue depressor, and placed specimen side down in separately marked containers with 10% buffered formalin. Specimens were shipped to a veterinary dermatopathologist for qualitative histopathological determinations.

SMILES	inhibition of LPAAT enzyme activity [1]	inhibition of smooth muscle cell proliferation (smooth muscle cell)	PUMP-1 activity, % of control levels (stromelysin/PUMP-1) [%]	metabolic conversion of PTX [2]	proliferative response of PBMC to allogeneic stimulation [3]	hair follicles, subjective histopathological examination (nu/nu mice)
C[C@H](O)CCCCn1c(=O)c2c(ncn2C)n(C)c1=O [CT1501S]	only CT1501R significantly inhibited enzyme activity	–	–	–	–	–
CC(=O)CCCCn1c(=O)c2c(ncn2C)n(C)c1=O [PTX, 1-(5-oxohexyl)-3,7-dimethylxanthine, reference compound]	only CT1501R significantly inhibited enzyme activity	inhibited smooth muscle cell proliferation at the higher doses tested	95	converted almost exclusively to the S enantiomer of MI	showed dose-response activity	–
Nc1cc(N2CCCCC2)nc(N)[n+]1[O-] [minoxidil, reference compound]	–	–	–	–	–	fair response to treatment
